Entries after “also recorded” stand apart in the source; their conditions may differ.
What was measured:
[1] = cited from earlier work
[2] = tested on: LEW rats transplanted with DA livers; assay: Allogeneic orthotopic liver transplant (OLT) model: survival, histology, sGOT; format: in vivo, rat
Protocol: Ad-HO-1 transduction in OLT model. Male Dark-Agouti (DA; RT1^3) and Lewis (LEW; RT1′) rats of 10-16 weeks of age were purchased from Harlan Sprague Dawley, Inc. (San Diego, Calif.), and maintained under conditions approved by the UCLA Chancellor's Animal Research Committee (CARC). All animals were housed in microisolator cages in a virus free facility and fed laboratory chow ad libitum. Orthotopic liver transplants were performed between DA donors and LEW rat recipients, as described previously. Amersi et al., supra; Kato et al., Am. J. Transplant 1:121-28 (2001). Ex-vivo gene transfer into liver grafts was performed during cold preservation (4° C.) via perfusion of the portal vein with 2 ml of cold lactated Ringer's solution containing 5×10^10 pfu (plaque-forming unit) of Ad-HO-1. Control grafts were perfused with 5×10^10 pfu of Ad-β-gal. Animals were followed for survival. Separate groups of recipients were sacrificed at day 3, 7 and 10 post-transplant, OLTs were harvested for histological evaluation, whereas blood samples were collected for measurement of sGOT levels.
Methylene chloride treatment in OLT model To investigate whether CO represents a functional downstream HO-1 mediator in this system, methylene chloride was used as a carbon monoxide generator. As indicated above, the metabolism of MC is known to result in the exclusive production of CO2 and CO. Gargas et al., supra. LEW rats transplanted with DA livers were fed with methylene chloride (500 mg/kg) 2 hr prior to the transplant, followed by a 2-week post-transplant course (500 mg/kg/day). The blood CoHb levels in experimental animals were measured at day 0, 5, and 10. Animal survival was screened and OLTs were analyzed histologically.
Histology. Liver allografts were harvested at day 3, 7 and 10 post-transplant. The tissue was sliced into small pieces, preserved in 10% neutral-buffered formalin, cut into 5-μm section, and stained with hematoxylin and eosin (H&E) by standard methods.

[3] = tested on: LEW.1W aortic allografts in LEW.1A rats; assay: Chronic aorta allograft rejection model, morphometry of intima thickness; format: in vivo, rat; settings: day 30
Protocol: Animals and aorta transplantation. Transplantations were performed using 250 g inbred male Lewis 1W rats (LEW. 1W, haplotype RT1^u) as donors and LEW.1A rats (haplotype RT1^a) as recipients (CERJ, Le Genest St. Isle, France). These animals are completely mismatched for the entire MHC region. Animal procedures followed European guidelines for animal experimentation. The descending thoracic aortas were harvested, perfused with saline and anastomosed to the recipient's abdominal aorta below the renal arteries and above the aortic bifurcation. Anastomosis was performed in a termino-lateral fashion and the recipient abdominal aorta was ligated between the two-graft anastomosis. […]
MC (Sigma, St. Louis, Mo.) was diluted in olive oil and administered orally on a daily basis (from day 0 to 30) at 500 mg/kg. […] COHb levels were evaluated in heparinized venous blood using the VOXimeter sensor (A-VOX Systems, San Antonio, Tex.) and expressed as the percentage of total hemoglobin. Bicarbonates, soluble CO2, total CO2 and pH were measured using standard clinical biochemistry techniques (Laboratory of Biochemistry, University Hospital of Nantes).
Recombinant adenovirus and gene transfer into the aorta. […] Quantification of infectious adenoviral particles was determined by counting the number of spots (corresponding to individual viral replication events) on infected 293 cells. […]

Structure (SMILES): ClCCl [methylene chloride]
- HbCO generated ([1]; 500 mg/kg MC per os): around 10%
- half life of metabolism ([1]; 500 mg/kg MC per os): about 3 h
- toxicity on repeated administration ([1]; 500 mg/kg for 4 weeks, rats): did not induce major body weight, biochemical or histological changes
- maximal COHb values in venous or aortic blood ([1]; 500 mg/kg orally): 10 % COHb
- portion of the compound converted into carbon monoxide ([1]; rat, in vivo): 50-80%
- hepatic parenchyma viable / preserved ([2]; OLT by day 10 post-transplant): more than 80%
- histological grade of rejection ([2]; OLT by day 10 post-transplant): mild to moderate rejection
- recipients/livers surviving >120 days ([2]; allogeneic OLT): two out of seven
- mean survival time [MST]±SD ([2]; allogeneic OLT, vectors 5×10^10 pfu ex vivo perfusion, methylene chloride 500 mg/kg/day × 14 days): > 47 ± 46 days
- rat recipients surviving >3 weeks ([2]; daily feedings with methylene chloride alone): ca. 50%
- tolerability of regimen ([2]; methylene chloride 500 mg/kg/day × 14 days, OLT recipients): well tolerated and no side effects were noted; also recorded: well tolerated
- Mean (days) recipient survival ([2]; treatment protocol as in Table 1): >47 days
- intimal thickening (mean±SEM) ([3]; allogeneic aortic grafts, MC 500 mg/kg orally daily, adenoviruses 10^10 IP into donor aorta): 8.3±4.5%
- infiltrating cells in adventitia (HES) [3]: moderate reduction
